Reference: paper PMC5869712 (Scientific Reports, 2018)
Where two headings read alike, the source gives them in different places.

Tests used:
[1] = system: IFN-γ-induced JAK/STAT1 phosphorylation in U2OS cells (JAK1/JAK2); assay: STAT1 phosphorylation induced by IFN-γ in U2OS cells, Western blot; conditions: for IC50: Homo sapiens
JNK1α1 = target: T1, JNK1α1 (Homo sapiens, UniProt P45983); assay: Eurofins Kinase Profiler panel; format: biochemical; conditions: read-out: % inhibition (1μM), DMSO control=100%, lower=stronger
T1 construct: purchased Eurofins KinaseProfiler (Eurofins Pharma Discovery Services UK, Dundee); JAK3 also ChemPartner

[2] = system: EPO-induced JAK/STAT5 phosphorylation in HEL cells (JAK2); assay: STAT5 phosphorylation induced by EPO in HEL cells, Western blot
GRK5 = target: T2, GRK5 (Homo sapiens, UniProt P34947); assay: Eurofins Kinase Profiler panel; format: biochemical; conditions: read-out: % inhibition (1μM), DMSO control=100%, lower=stronger
T2 construct: purchased Eurofins KinaseProfiler (Eurofins Pharma Discovery Services UK, Dundee); JAK3 also ChemPartner

[3] = Pharmacokinetics in Sprague Dawley rats; format: in vivo
[4] = system: GM-CSF-induced JAK/STAT5 phosphorylation in TF-1 cells (JAK2); assay: STAT5 phosphorylation induced by GM-CSF in TF-1 cells, Western blot
IKKβ = target: T3, IKKβ (Homo sapiens, UniProt O14920); assay: Eurofins Kinase Profiler panel; format: biochemical; conditions: read-out: % inhibition (1μM), DMSO control=100%, lower=stronger
T3 construct: purchased Eurofins KinaseProfiler (Eurofins Pharma Discovery Services UK, Dundee); JAK3 also ChemPartner

JAK3 = target: T4, JAK3 (Homo sapiens, UniProt P52333); assay: Reversibility assay (jump dilution); format: biochemical; conditions: jump dilution experiment
T4 construct: ChemPartner (contract assay service)
T4 sequence (P52333 1-1124): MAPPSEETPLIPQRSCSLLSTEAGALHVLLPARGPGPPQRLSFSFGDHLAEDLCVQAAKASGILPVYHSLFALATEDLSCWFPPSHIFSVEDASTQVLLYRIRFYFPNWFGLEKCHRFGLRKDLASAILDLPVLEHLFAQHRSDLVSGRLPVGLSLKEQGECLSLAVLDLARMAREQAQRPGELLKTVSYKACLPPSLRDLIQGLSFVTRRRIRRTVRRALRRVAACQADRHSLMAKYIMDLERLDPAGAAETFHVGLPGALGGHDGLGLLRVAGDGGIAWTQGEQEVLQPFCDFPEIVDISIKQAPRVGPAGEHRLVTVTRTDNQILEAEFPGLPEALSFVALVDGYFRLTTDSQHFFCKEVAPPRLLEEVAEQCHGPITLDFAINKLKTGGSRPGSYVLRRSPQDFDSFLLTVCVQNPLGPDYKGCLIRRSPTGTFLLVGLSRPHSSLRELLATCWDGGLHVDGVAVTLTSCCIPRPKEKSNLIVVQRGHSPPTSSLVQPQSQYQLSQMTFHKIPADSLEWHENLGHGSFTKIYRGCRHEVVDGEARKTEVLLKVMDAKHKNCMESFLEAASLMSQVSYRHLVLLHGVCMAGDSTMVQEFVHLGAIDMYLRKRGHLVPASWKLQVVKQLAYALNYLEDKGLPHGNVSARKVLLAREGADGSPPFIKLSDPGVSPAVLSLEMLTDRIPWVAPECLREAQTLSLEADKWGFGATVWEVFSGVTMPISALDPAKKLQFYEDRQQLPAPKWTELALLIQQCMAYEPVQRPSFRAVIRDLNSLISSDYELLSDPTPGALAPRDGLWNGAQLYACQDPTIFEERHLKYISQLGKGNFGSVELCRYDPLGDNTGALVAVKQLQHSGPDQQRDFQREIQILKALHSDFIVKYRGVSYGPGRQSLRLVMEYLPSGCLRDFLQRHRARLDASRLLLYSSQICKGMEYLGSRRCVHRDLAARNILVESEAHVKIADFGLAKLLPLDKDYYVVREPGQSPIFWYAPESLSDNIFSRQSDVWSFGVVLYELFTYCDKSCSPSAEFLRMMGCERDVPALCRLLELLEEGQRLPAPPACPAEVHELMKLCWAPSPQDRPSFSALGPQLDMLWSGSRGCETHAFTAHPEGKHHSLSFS
Description: This test trial of our compound RB1 was performed on a ChemPartner reversibility assay platform (ChemPartner; Shanghai; China). Jump dilution analysis is commonly used. The compound was tested in duplicate under 2 conditions, preincubation with enzyme and no preincubation. The assay protocol guide is commercially available from ChemPartner.
Supplementary Figure S5. […] RB1 with […]
with kinase buffer that contains peptide substrate, ATP and cofactors at the final concentration for reaction, and read conversion data for 20 times for 1 h on caliper.
(1 picture or pasted object on this page, not shown here)

[5] = both sexes, Sprague Dawley, rat, iv 5.0 mg/kg, plasma
[6] = both sexes, Sprague Dawley, rat, plasma, iv 5.0 mg/kg
[7] = both sexes, Sprague Dawley, rat, plasma, po 10 mg/kg
[8] = both sexes, Sprague Dawley, rat, po 10 mg/kg, plasma

T2 sequence (P34947 whole entry): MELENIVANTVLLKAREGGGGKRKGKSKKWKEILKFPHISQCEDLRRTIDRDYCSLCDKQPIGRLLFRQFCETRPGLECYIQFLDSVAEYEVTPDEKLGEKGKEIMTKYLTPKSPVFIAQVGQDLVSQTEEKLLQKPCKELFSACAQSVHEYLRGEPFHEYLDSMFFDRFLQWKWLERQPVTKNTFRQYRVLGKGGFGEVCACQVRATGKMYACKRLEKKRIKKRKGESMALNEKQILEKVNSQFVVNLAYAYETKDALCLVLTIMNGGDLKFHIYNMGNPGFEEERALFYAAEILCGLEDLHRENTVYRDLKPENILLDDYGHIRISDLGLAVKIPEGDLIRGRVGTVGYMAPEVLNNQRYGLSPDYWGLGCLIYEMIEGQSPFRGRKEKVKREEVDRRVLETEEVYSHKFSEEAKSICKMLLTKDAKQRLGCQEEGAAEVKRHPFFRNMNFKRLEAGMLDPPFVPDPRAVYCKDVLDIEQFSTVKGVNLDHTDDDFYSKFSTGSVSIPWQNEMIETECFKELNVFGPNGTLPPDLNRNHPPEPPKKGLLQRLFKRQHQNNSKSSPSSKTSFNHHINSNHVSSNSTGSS
T3 sequence (O14920 whole entry): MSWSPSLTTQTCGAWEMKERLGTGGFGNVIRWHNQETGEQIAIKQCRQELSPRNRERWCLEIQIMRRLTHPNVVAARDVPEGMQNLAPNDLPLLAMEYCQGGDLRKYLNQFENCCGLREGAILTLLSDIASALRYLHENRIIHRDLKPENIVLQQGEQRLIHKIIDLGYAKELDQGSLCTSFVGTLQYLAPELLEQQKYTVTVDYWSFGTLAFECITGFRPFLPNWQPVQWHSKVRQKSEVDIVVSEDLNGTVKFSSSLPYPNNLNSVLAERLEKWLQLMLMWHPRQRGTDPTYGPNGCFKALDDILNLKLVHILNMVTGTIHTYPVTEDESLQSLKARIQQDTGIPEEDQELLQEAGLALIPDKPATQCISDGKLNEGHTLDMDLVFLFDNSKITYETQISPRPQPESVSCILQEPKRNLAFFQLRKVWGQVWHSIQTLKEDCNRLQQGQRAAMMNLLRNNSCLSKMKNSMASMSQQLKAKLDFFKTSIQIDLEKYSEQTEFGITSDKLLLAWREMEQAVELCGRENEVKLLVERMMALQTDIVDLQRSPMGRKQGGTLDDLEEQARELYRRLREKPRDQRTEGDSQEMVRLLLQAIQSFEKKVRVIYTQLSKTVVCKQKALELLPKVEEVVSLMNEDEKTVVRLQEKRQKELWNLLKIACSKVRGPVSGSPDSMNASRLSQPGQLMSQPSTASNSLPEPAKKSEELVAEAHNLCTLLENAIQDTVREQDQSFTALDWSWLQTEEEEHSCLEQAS
T1 sequence (P45983 1-384 isoform P45983-2): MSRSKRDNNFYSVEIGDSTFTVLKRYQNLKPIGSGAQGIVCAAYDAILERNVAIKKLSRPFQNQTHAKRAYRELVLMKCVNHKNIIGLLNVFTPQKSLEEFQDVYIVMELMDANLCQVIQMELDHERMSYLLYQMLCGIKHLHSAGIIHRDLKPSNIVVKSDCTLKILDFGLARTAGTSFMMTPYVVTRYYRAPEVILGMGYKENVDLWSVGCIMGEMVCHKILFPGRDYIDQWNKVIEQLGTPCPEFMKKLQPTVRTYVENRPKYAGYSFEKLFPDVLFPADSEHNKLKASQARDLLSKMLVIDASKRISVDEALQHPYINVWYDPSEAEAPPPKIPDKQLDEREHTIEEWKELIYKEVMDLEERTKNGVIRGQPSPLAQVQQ

In the case of `C=CC(=O)N[C@@H]1CCCN(c2ncnc3[nH]ccc23)C1` [RB1], the IC50 ([1]; U2OS, read-out: IC50 (nM) JAK1) is reported as > 50000 nM, the IC50 ([1]; U2OS, read-out: IC50 (nM) JAK2) is reported as > 50000 nM and the “IFN-γ-induced phosphorylation of STAT1” value ([1]; U2OS cells, RB1 at concentrations over 50 μM) is reported as “not affected”. The “Selectivity JAK1/JAK3” value ([1]; U2OS, IFN-γ, pSTAT1) was > 1000, the “Selectivity JAK2/JAK3” value ([1]; U2OS, IFN-γ, pSTAT1) was > 1000 and the activity at 1 µM (JNK1α1) was 101%. The “Selectivity JAK2/JAK3” value ([2]; EPO, pSTAT5) was > 1000, the IC50 ([2]; Homo sapiens) was > 50 µM and the activity at 1 µM (GRK5) was 94%. The AUC(0-inf) [3, 5] was 933 ng·h/mL, the AUC(0-t) [3, 5] was 802 ng·h/mL and the Cmax [3, 5] was 1090 ng/mL. For the same compound, the Tmax [3, 6] was 0.08 h, the clearance [3, 6] was 97.7 mL/min/kg and the half-life [3, 6] was 14.6 h. For the same compound, the bioavailability ([3]; both sexes, Sprague Dawley, rat, plasma, oral, 10 mg/kg, po 10 mg/kg vs iv 5.0 mg/kg, read-out: F (oral bioavailability)) was 72.5%, the Tmax [3, 7] was 0.25 h and the half-life [3, 7] was 6.9 h. For the same compound, the AUC(0-inf) [3, 8] was 1310 ng·h/mL, the AUC(0-t) [3, 8] was 1160 ng·h/mL and the Cmax [3, 8] was 309 ng/mL. The V ([3]; iv 5.0 mg/kg) was 98.04 L/kg, the CL ([3]; po 10 mg/kg) was 144 mL/min/kg and the V ([3]; po 10 mg/kg) was 77.33 L/kg. For the same compound, the “F (oral bioavailability)” value ([3]; po 10 mg/kg vs iv 5.0 mg/kg) was 72.5%, the “Selectivity JAK2/JAK3” value ([4]; GM-CSF, pSTAT5) was > 1000 and the IC50 ([4]; Homo sapiens) was > 50 µM. For the same compound, the activity at 1 µM (IKKβ) was 105% and the “active JAK3 over time after preincubation” value (JAK3) was “no active JAK3 was detected”.
